Experimental findings from article PMC13210772, “Dual FLT3/MAPK14 Proteolysis-Targeting Chimera (PROTAC) Induces Potent Acute Myeloid Leukemia Cell Death” (Pharmaceuticals, 2026) are described below.

Series [1] can be described thus: Non-enzymatic stability under cellular assay conditions (HPLC). The format is physicochemical. Conditions: compound remaining, assay medium DMEM, 37 °C. As for the experimental part: An important aspect in the development of PROTACs is testing chemical stability. On the one hand, we tested all PROTACs produced for their stability under cellular assay conditions. For this purpose, 10 µM solutions of the PROTACs and reference inhibitor were incubated for 72 h at 37 °C with the assay medium DMEM. The remaining amount of the compounds was determined by HPLC after 6, 12, 24, 48 and 72 h. The results of the stability studies are shown in Table S2 (Supplementary Information).
The developed compounds were diluted in the assay media consisting of a mixture of DMEM (50%), DMSO (10%) and acetonitrile (40%) at pH 7.4 and incubated at 37 °C for 72 h. The quantity of the compounds was measured after 6, 12, 24, 48, and 72 h by HPLC using an XTerra RP18 column ([…], 3.9 mm × 100 mm) from the manufacturer Waters (Milford, MA, USA) and two LC-10AD pumps, an SPD-M10AVP PDA detector, and an SIL-HT autosampler, all from the manufacturer Shimadzu (Kyoto, Japan).

Another series in a line: Plasma stability. It counts as in vitro ADME. Conditions: for remaining at 0 h, 10 µM / remaining at 10 min, 10 µM / remaining at 0.5 h, 10 µM / remaining at 1 h, 10 µM / remaining at 2 h, 10 µM / remaining at 6 h, 10 µM: pooled human plasma, 37 °C; for remaining at 0 h, 10 µM: 0 min, read-out: 0 min—Compound Remaining %; for remaining at 10 min, 10 µM: read-out: 10 min—Compound Remaining %; for remaining at 0.5 h, 10 µM: 30 min, read-out: 30 min—Compound Remaining %; for remaining at 1 h, 10 µM: 60 min, read-out: 60 min—Compound Remaining %; for remaining at 2 h, 10 µM: 120 min, read-out: 120 min—Compound Remaining %; for remaining at 6 h, 10 µM: 360 min, read-out: 360 min—Compound Remaining %; for plasma stability: human plasma, 6 h. Here is the method: Another aspect we tested for selected PROTACs, and the reference inhibitor is the stability in human plasma. PROTACs MA190 and MA191 and their parent inhibitor MA68 (10 μM, final DMSO concentration 1%) were incubated with 100 μL pooled human plasma at 37 °C. The remaining amount of the incubated compound was tested for 6 h using a HPLC method. […] The further detailed biological characterization of MA191 and the successful in vivo testing can be found in a study submitted in parallel.
To determine plasma stability, 10 μM of the given compound was incubated with 100 μL human pooled plasma for 5, 10, 30, 60, 120 and 360 min at 37 °C. The reactions were stopped by adding 300 μL of acetonitrile with subsequent plasma proteins sedimentation. The samples were subjected to ultra-centrifugation (5 min, 10,000 RPM/g) using modified PES 30K low protein binding centrifugal filter. The filtrate was then analyzed using HPLC to determine the available concentration of the compounds and also to determine and quantify potential degradation products. As HPLC system a LiChrosorb® RP-18 (5 μm) 100–4.6 column from the manufacturer Merck, two LC-10AD pumps, a SPD-M10A VP PDA detector, and a SIL HT auto-sampler were used (all from the manufacturer Shimadzu, Kyoto, Japan). As mobile phase a gradient with […] composed of methanol/water/trifluoroacetic acid at a flow rate of 1 mL/min. UV absorbance was measured at 254 nm was used.

A short description of another series: in vitro. Conditions: CD-1, mouse, liver microsomes, pH 7.4. In general terms: Microsomes from liver hold many membrane-bound enzymes, among them those of drug oxidation.
The next series deals with MAPK14 (Homo sapiens, UniProt Q16539). Description: KINOMEscan binding assay. More on the design: purchased Eurofins DiscoverX Corporation; host or cells: E. coli BL21-derived (T7 phage) or HEK-293. Here is the method: Kinase-tagged T7 phage strains were prepared in an E. coli host derived from the BL21 strain. E. coli were grown to log-phase and infected with T7 phage and incubated with shaking at 32 °C until lysis. The lysates were centrifuged and filtered to remove cell debris. The remaining kinases were produced in HEK-293 cells and subsequently tagged with DNA for qPCR detection. […] The liganded beads were blocked with excess biotin and washed with blocking buffer (SeaBlock (Pierce), 1% BSA, 0.05% Tween 20, 1 mM DTT) to remove unbound ligand and to reduce non-specific binding. […] The compounds were then diluted directly into the assays such that the final concentration of DMSO was 0.9%. All reactions performed in polypropylene 384-well plate. Each was a final volume of 0.02 mL. […] The kinase concentration in the eluates was measured by qPCR.
Sequence of MAPK14 (Q16539 whole entry): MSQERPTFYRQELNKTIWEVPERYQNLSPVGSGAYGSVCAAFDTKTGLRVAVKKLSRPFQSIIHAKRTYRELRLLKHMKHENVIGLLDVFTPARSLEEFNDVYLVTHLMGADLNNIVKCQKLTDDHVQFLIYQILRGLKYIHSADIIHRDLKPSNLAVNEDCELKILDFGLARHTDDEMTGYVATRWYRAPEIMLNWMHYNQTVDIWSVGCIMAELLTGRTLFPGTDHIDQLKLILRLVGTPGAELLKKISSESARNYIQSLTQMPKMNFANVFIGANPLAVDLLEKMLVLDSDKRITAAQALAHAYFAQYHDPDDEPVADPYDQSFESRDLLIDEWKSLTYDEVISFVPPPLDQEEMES

The target in the next series is T1, EPHB3 (Homo sapiens, UniProt P54753).
T1 construct: Full-length kinase ORF (Promega, Madison, WI, USA) cloned in frame with a NanoLuc-vector was transfected into HEK293T cells; host or cells: HEK293T
As to the kind of experiment: NanoBRET CELLinib128. The format is binding. Conditions: 100% no effect, 0% complete tracer displacement, read-out: Tracer bound. (In general: In BRET a luciferase serves as donor, and the signal depends on an acceptor being close.)

Another series concerns the target T2, TESK1 (Homo sapiens, UniProt Q15569).
T2 construct: Full-length kinase ORF (Promega, Madison, WI, USA) cloned in frame with a NanoLuc-vector; host or cells: HEK293T
Description: NanoBRET CELLinib128. It counts as binding. Particulars: 100% no effect, 0% complete tracer displacement, read-out: Tracer bound.

The next series has as its target CSF1R (Homo sapiens, UniProt P07333). As to the kind of experiment: NanoBRET CELLinib128. Conditions: read-out: Tracer bound.
In the next series the target is EPHA1 (Homo sapiens, UniProt P21709). As to the kind of experiment: NanoBRET CELLinib128. Particulars: read-out: Tracer bound.
For another series, the target named is EPHA2 (Homo sapiens, UniProt P29317). Description: NanoBRET CELLinib128. Particulars: read-out: Tracer bound.
Sequence of EPHA2 (P29317 24-976): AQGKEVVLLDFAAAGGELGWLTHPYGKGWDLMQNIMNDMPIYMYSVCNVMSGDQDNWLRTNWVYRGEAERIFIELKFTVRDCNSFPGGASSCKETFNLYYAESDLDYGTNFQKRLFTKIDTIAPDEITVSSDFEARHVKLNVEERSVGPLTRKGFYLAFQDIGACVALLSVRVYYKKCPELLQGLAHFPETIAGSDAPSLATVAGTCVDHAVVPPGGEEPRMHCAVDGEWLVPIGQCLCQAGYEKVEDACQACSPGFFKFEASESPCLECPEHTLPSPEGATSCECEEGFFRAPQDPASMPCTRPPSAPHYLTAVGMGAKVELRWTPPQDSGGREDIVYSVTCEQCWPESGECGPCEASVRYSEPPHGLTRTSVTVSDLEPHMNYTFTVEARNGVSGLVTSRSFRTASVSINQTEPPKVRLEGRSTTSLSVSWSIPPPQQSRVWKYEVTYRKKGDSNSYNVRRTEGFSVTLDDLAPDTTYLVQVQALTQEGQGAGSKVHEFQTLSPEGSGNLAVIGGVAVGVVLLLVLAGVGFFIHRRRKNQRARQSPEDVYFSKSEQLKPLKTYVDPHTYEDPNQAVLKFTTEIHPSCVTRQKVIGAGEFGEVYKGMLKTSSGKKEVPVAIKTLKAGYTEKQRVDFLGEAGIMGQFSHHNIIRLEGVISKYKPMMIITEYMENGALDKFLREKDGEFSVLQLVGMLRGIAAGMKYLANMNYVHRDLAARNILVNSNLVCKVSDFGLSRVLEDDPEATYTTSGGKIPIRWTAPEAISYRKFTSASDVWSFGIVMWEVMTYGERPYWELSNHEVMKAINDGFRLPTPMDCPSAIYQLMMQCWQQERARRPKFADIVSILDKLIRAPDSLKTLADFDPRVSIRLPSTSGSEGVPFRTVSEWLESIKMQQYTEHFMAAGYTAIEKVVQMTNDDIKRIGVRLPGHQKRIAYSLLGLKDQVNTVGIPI
The target in a further series is RON (Homo sapiens, UniProt Q04912). Description: NanoBRET CELLinib128. Particulars: read-out: Tracer bound.
Sequence of RON (Q04912 25-1400): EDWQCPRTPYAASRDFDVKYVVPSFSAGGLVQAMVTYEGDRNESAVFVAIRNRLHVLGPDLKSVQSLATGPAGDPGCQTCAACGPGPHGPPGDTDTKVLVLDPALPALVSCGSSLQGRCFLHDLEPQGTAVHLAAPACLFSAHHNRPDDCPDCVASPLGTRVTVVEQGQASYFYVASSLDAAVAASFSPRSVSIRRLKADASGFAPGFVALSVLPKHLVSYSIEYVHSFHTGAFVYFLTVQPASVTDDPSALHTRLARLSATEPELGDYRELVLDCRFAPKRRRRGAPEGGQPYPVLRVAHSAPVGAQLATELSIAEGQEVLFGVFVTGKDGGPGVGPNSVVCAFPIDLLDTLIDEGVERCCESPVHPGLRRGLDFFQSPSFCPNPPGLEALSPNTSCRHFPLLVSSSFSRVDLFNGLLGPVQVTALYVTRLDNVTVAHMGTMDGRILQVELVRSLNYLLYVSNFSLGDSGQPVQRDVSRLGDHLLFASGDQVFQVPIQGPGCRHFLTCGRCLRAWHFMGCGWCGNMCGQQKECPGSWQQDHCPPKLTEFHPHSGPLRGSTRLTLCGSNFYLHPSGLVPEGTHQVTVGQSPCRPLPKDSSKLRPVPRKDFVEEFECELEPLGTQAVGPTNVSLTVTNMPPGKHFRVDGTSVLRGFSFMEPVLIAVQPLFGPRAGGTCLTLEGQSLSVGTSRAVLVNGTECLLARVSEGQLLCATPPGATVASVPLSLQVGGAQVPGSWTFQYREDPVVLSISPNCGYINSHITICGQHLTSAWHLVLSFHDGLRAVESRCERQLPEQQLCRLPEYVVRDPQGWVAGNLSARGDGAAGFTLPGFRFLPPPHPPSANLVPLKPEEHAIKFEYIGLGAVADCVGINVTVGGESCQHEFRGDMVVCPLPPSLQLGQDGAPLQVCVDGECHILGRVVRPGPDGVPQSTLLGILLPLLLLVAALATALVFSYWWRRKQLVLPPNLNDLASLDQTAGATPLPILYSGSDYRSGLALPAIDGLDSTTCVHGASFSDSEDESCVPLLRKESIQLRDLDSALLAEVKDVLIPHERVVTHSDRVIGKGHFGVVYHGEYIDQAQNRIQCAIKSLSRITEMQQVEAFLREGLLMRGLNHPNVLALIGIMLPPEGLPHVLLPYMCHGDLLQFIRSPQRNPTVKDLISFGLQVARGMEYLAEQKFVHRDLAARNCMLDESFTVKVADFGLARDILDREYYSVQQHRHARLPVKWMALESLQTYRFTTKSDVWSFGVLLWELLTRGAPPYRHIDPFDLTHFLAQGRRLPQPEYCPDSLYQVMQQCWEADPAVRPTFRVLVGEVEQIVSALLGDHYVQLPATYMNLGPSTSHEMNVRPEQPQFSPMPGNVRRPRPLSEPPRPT
The next series has as its target SRC (Homo sapiens, UniProt P12931). As to the kind of experiment: NanoBRET CELLinib128. Conditions: read-out: Tracer bound.
Series [2] has as its system 128 representative protein kinases. As to the kind of experiment: NanoBRET CELLinib128 kinase selectivity panel, summary. Particulars: 1 μM.

By amount remaining is commonly meant the share of the starting amount still present when the sample was taken.

Molecules are shown by their SMILES.

Sequence of SRC (P12931 whole entry): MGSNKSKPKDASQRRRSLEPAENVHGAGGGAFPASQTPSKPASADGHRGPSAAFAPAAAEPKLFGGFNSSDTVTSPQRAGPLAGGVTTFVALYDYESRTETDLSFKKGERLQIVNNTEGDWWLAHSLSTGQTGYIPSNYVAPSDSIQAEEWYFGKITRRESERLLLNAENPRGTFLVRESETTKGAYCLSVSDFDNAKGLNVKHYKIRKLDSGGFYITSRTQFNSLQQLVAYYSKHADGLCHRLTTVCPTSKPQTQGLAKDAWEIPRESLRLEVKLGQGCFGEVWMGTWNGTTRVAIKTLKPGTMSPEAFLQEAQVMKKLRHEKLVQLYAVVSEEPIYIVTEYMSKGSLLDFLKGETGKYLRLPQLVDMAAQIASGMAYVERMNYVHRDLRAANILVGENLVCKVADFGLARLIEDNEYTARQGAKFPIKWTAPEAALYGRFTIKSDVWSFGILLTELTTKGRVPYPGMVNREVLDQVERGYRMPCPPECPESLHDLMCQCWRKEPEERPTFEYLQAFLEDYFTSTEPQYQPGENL
T2 sequence (Q15569 whole entry): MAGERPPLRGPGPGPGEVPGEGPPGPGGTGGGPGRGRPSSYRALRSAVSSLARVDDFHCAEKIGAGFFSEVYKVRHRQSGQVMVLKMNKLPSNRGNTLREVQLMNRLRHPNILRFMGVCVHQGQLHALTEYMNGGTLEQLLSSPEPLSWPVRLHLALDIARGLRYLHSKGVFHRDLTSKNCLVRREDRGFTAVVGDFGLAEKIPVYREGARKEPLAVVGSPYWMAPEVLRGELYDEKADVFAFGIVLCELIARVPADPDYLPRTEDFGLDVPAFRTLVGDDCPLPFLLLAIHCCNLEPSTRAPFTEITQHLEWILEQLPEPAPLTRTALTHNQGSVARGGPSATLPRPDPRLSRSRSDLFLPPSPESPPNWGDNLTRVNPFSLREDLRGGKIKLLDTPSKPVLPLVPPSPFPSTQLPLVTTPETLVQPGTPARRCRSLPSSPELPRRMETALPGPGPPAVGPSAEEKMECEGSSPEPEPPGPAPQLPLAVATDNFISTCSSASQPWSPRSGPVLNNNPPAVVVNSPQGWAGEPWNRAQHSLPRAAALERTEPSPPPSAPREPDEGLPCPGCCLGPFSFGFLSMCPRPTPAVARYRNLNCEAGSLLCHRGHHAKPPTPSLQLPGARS
Sequence of CSF1R (P07333 20-972): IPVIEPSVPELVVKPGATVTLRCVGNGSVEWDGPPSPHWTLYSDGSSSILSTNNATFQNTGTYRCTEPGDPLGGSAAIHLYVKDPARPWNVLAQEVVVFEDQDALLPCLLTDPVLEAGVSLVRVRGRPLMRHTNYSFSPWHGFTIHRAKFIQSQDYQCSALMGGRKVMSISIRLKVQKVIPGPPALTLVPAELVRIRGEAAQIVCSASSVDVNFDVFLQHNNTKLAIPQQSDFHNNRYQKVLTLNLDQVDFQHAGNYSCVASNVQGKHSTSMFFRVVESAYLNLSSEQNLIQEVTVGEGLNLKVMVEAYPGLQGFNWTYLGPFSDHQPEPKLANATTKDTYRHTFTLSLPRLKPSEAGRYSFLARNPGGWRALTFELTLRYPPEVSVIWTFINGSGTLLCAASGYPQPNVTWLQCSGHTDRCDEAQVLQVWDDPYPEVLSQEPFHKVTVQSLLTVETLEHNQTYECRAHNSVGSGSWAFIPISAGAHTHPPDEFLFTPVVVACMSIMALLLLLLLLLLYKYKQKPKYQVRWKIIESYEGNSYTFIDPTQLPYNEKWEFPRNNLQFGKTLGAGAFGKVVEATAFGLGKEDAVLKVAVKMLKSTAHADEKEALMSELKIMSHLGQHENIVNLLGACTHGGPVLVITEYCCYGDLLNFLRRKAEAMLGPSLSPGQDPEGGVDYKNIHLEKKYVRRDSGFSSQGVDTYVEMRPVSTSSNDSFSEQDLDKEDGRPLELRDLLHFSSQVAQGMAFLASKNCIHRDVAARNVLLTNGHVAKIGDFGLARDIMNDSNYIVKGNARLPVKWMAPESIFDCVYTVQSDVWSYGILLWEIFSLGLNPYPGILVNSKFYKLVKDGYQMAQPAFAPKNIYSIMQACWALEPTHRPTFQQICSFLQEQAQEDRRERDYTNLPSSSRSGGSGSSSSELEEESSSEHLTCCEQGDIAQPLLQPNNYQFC

On to `Cc1ncsc1-c1ccc([C@H](C)NC(=O)[C@@H]2C[C@@H](O)CN2C(=O)[C@@H](NC(=O)CCOCCOCCOCCNC(=O)c2cc(Oc3ccc(NC(=O)Nc4cc(C(C)(C)C)on4)cc3)ccn2)C(C)(C)C)cc1` [MA49, reference compound], for which, in series [1], the “0 h - %” value was 100%, the 6 h- % is 101.1%, the 12 h- % was 101.4% and the 24 h- % came to 103.5%. In series [1], the 48 h- % is on record as 104.2% and the 72 h- % stood at 104.9%. In “Plasma stability”, the amount remaining at 0 h, 10 µM worked out at 100%; the amount remaining at 10 min, 10 µM came out at 94.9 ± 2.5%; the amount remaining at 0.5 h, 10 µM was found to be 96.1 ± 1.7%; the fraction remaining at 1 h, 10 µM amounted to 95.2 ± 2.8%. In the series “Plasma stability”, the share remaining at 2 h, 10 µM was 93.2 ± 6.7% and the amount remaining at 6 h, 10 µM was determined as 95.4 ± 4.3%. For the same compound, in the series “in vitro”, the fraction remaining at 0 h, 25 µM came to 100%; the fraction remaining at 10 min, 25 µM amounted to 66%; the fraction remaining at 20 min, 25 µM came to 53%; the share remaining at 0.5 h, 25 µM came to 37%. In the series “in vitro”, this compound displayed a share remaining at 1 h, 25 µM of 29% and an amount remaining at 2 h, 25 µM of 15%. In addition, the “% MAPK- 14 Binding at 1 µM” value on MAPK14 was 81 ± 0%.
As for `CNC(=O)c1cc(Oc2ccc(NC(=O)Nc3cc(C(C)(C)C)on3)cc2)ccn1` [MA68, reference compound], in series [1], the “0 h - %” value is given as 100%, the 6 h- % is on record as 101.0%, the 12 h- % was 102.4% and the 24 h- % came out at 102.1%. In addition, in series [1], the 48 h- % is on record as 105.7% and the 72 h- % is on record as 105.2%. In “Plasma stability”, the “plasma stability” value is “high plasma stability”; the amount remaining at 0 h, 10 µM came out at 100%; the amount remaining at 10 min, 10 µM was 92.9 ± 0.2%; the amount remaining at 0.5 h, 10 µM was 94.2 ± 1.2%. In the series “Plasma stability”, the amount remaining at 1 h, 10 µM was found to be 91.9 ± 3.1%; the share remaining at 2 h, 10 µM was 93.6 ± 3.2%; the share remaining at 6 h, 10 µM came to 88.9 ± 3.2%. Besides, the remaining activity at 1 µM at EPHB3 was 44.8%. The remaining activity at 1 µM on TESK1 was 102%. In addition, the remaining activity at 1 µM on CSF1R worked out at 27.1%. Also, the remaining activity at 1 µM at EPHA1 turned out to be 37.2%. Further, at EPHA2, the remaining activity at 1 µM is 10.6%. Also, the remaining activity at 1 µM on RON amounted to 100%. Moreover, the remaining activity at 1 µM on SRC came out at 120%. Further, the “Target Count < 50 % tracer bound (kinases with >50% tracer displacement)” value in series [2] (of 128 kinases) is given as 25.
`Cc1ncsc1-c1ccc([C@H](C)NC(=O)[C@@H]2C[C@@H](O)CN2C(=O)[C@@H](NC(=O)[C@H]2CC[C@H](C(=O)N3CCC(CCNC(=O)c4cc(Oc5ccc(NC(=O)Nc6cc(C(C)(C)C)on6)cc5)ccn4)CC3)CC2)C(C)(C)C)cc1` [MA190, 4-(4-(3-(5-(tert-Butyl)isoxazol-3-yl)ureido)phenoxy)-N-(2-(1-(trans-4-(((S)-1-((2S,4R)-4-hydroxy-2-(((S)-1-(4-(4-methylthiazol-5-yl)phenyl)ethyl)carbamoyl)pyrrolidin-1-yl)-3,3-dimethyl-1-oxobutan-2-yl)carbamoyl)cyclohexanecarbonyl)piperidin-4-yl)ethyl)picolinamide]: in series [1], the “0 h - %” value was 100%, the 6 h- % was 102.6%, the 12 h- % worked out at 103.2% and the 24 h- % is 104.4%. Besides, in series [1], the 48 h- % is 105.4% and the 72 h- % amounted to 107.4%. In addition, in the series “Plasma stability”, the “plasma stability” value is recorded as “high plasma stability”; the share remaining at 0 h, 10 µM is 100%; the fraction remaining at 10 min, 10 µM was determined as 94.1 ± 4.7%; the fraction remaining at 0.5 h, 10 µM is 89.5 ± 1.8%. In “Plasma stability”, the share remaining at 1 h, 10 µM stood at 88.3 ± 0.2%; the amount remaining at 2 h, 10 µM came to 86 ± 2%; the share remaining at 6 h, 10 µM is 86.2 ± 2.4%. In the series “in vitro”, this compound yielded an amount remaining at 0 h, 25 µM of 100%; a share remaining at 10 min, 25 µM of 92%; a fraction remaining at 20 min, 25 µM of 90%; a share remaining at 0.5 h, 25 µM of 95%. Moreover, in “in vitro”, the share remaining at 1 h, 25 µM stood at 96% and the fraction remaining at 2 h, 25 µM stood at 91%. In addition, the “% MAPK- 14 Binding at 1 µM” value at MAPK14 stood at 90 ± 2%.
In the case of `Cc1ncsc1-c1ccc([C@H](C)NC(=O)[C@@H]2C[C@@H](O)CN2C(=O)[C@@H](NC(=O)[C@H]2CC[C@H](C(=O)N3CCN(CCNC(=O)c4cc(Oc5ccc(NC(=O)Nc6cc(C(C)(C)C)on6)cc5)ccn4)CC3)CC2)C(C)(C)C)cc1` [MA191, 4-(4-(3-(5-(tert-Butyl)isoxazol-3-yl)ureido)phenoxy)-N-(2-(4-(trans-4-(((S)-1-((2S,4R)-4-hydroxy-2-(((S)-1-(4-(4-methylthiazol-5-yl)phenyl)ethyl)carbamoyl)pyrrolidin-1-yl)-3,3-dimethyl-1-oxobutan-2-yl)carbamoyl)cyclohexanecarbonyl)piperazin-1-yl)ethyl)picolinamide], in series [1], the “0 h - %” value is recorded as 100%, the 6 h- % came to 100.3%, the 12 h- % is recorded as 100.0% and the 24 h- % is 99.7%. In series [1], this compound came in with a 48 h- % of 100.3% and a 72 h- % of 100.3%. For the same compound, in the series “Plasma stability”, the “plasma stability” value was “high plasma stability”; the share remaining at 0 h, 10 µM amounted to 100%; the amount remaining at 10 min, 10 µM was determined as 95.9 ± 9.4%; the amount remaining at 0.5 h, 10 µM worked out at 93.3 ± 4.2%. For the same compound, in “Plasma stability”, the fraction remaining at 1 h, 10 µM is 92.6 ± 5.7%; the share remaining at 2 h, 10 µM came to 94.9 ± 1.8%; the amount remaining at 6 h, 10 µM was determined as 93.3 ± 0.7%. For the same compound, the remaining activity at 1 µM on EPHB3 stood at 120%. The remaining activity at 1 µM at TESK1 stood at 116%. Besides, in “in vitro”, the amount remaining at 0 h, 25 µM came to 100%; the amount remaining at 10 min, 25 µM was 99%; the share remaining at 20 min, 25 µM came out at 96%; the amount remaining at 0.5 h, 25 µM was 94%. In “in vitro”, the share remaining at 1 h, 25 µM was found to be 93% and the share remaining at 2 h, 25 µM amounted to 91%. At CSF1R, the remaining activity at 1 µM was 108%. Besides, on EPHA1, the remaining activity at 1 µM was found to be 120%. Besides, the remaining activity at 1 µM on EPHA2 was 104%. Further, the remaining activity at 1 µM on RON came out at 98.5%. Moreover, the remaining activity at 1 µM at SRC was 120%. Also, the “kinases with no detectable binding (<10%)” value in series [2] (share of the 128 kinases) was found to be 93.7%. The “% MAPK- 14 Binding at 1 µM” value on MAPK14 came out at 89 ± 2%.
